Data published in patent US12636285B2 (ViiV Healthcare Company, priority 2019, dated 2026).
Where “and” joins values, the source holds several entries; their conditions need not be identical. Equal values may be shown once. Read-outs that look alike come from different tables or passages of the source.

Tests used:
[1] = tested on: HIV-1
[2] = Mass balance studies, single-dose oral [14C] drug; assay type: in vivo, human; settings: single-dose oral [14C] drug
[3] = target: T1, renal organic anion transporters (OAT)1 (Homo sapiens, UniProt Q4U2R8); test: In vitro transporter inhibition, OAT1; assay type: in vitro ADME
T1 sequence (Q4U2R8 1-563): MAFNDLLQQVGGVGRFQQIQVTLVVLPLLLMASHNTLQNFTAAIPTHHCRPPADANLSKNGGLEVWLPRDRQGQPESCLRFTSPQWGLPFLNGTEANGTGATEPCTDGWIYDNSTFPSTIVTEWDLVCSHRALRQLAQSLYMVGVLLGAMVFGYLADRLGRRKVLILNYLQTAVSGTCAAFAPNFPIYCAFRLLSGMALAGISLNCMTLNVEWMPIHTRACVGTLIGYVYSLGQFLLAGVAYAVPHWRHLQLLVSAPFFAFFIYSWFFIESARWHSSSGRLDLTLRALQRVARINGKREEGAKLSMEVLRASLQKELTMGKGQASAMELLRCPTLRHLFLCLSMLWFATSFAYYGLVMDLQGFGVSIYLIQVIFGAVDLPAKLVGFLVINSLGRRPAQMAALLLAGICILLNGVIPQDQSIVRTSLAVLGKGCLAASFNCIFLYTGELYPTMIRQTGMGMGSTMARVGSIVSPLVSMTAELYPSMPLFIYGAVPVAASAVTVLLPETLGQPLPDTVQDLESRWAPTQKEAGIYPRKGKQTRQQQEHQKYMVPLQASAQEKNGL
From the text: However, based on PBPK modeling, no interaction with OAT substrates is expected at clinically relevant concentrations.

[4] = tested on: HIV-1; test: Antiviral activity in combination with other antivirals, cell culture; assay type: cell-based; settings: cell culture

C[C@H]1CO[C@@H]2Cn3cc(C(=O)NCc4ccc(F)cc4F)c(=O)c(O)c3C(=O)N12 [Cabotegravir, (3S,11aR)-N-[(2,4-difluorophenyl)methyl]-6-hydroxy-3-methyl-5,7-dioxo-2,3,5,7,11,11a-hexahydro[1,3]oxazolo[3,2-a]pyrido[1,2-d]pyrazine-8-carboxamide]
decreased susceptibility in virologic failures ([1]; G140R, n=1): 7 fold | decreased susceptibility in virologic failures ([1]; N155H, n=1): 3 fold | decreased susceptibility in virologic failures ([1]; Q148R, n=2): 5 fold and 9 fold | % of dose excreted as total 14C in feces [2]: 59% | % of dose excreted as total 14C in urine [2]: 27% | % of dose excreted as unchanged drug in feces [2]: 47% | % of dose excreted as unchanged drug in urine [2]: 0% | IC50 [3]: 0.81 µM | antiviral activity in combination with rilpivirine, emtricitabine (FTC), lamivudine (3TC), or tenofovir disoproxil fumarate (TDF) [4]: not antagonistic
